Measured values reported in PMC9322761, “Design, Synthesis and Biological Characterization of Histone Deacetylase 8 (HDAC8) Proteolysis Targeting Chimeras (PROTACs) with Anti-Neuroblastoma Activity” (International Journal of Molecular Sciences, 2022).

Tests used:
acetylated SMC3 = assay: Acetylation of HDAC8 substrate SMC3 in SK-N-BE(2)-C cells (Western blot); assay type: cell-based, human; details: 10 µM
Experimental: To test the degradation of HDAC8 with the developed PROTACs, we selected the most promising compounds obtained from the cellular neuroblastoma testing; namely CRBN_1b, CRBN_1d, CRBN_1e, HyT_1m, and HyT_1p. Whole cell lysates from treated SK-N-BE(2)-C neuroblastoma cells were taken and the protein levels for HDAC8 and the acetylation of its substrate SMC3 were determined (Figure 6). As a control for HDAC6, we also assessed acetylation levels of α-tubulin. […]. A clear dose-dependent degradation of HDAC8 by PROTAC CRBN_1e was observed (Figure 6C). After 48 h, the HDAC8 protein level was back to baseline, presumably due to de novo protein synthesis. […]. Western blot analysis was performed as described previously (Kolbinger et al.). […]
Figure 6 (A) SK-N-BE(2)-C neuroblastoma cells were treated for indicated time points with 10 µM of PROTACs. Degradation of HDAC8 and acetylation of HDAC8 target was analyzed via Western blot. […] Acetylation of HDAC8 target SMC3 and HDAC6 target tubulin, as well as total HDAC8 levels, were assessed by Western blot. Quantified ac-SMC3 or ac-tubulin expression, respectively, was normalized to the respective tubulin loading control and to the solvent control (DMSO). This quantification is reflected by the numbers below each blot. […] Total HDAC6, total HDAC1, total HDAC8, and acetyl-histone H4 expression levels, were assessed by Western blot. […]

HDAC1 = HDAC1 (Homo sapiens, UniProt Q13547); assay: HDAC1 degradation in SK-N-BE(2)-C cells (Western blot); details: 6 h, up to 10 µM
Experimental: Total HDAC6, total HDAC1, total HDAC8, and acetyl-histone H4 expression levels, were assessed by Western blot. Total GAPDH protein levels served as a loading control (LC). * unspecific bands obtained through reprobing of the membrane.

[1] = Non-enzymatic stability in assay medium (HPLC); details: 37 °C, 10 µM, pH7.4
Experimental: Non-enzymatic stability of selected final compounds was determined using 10 µM concentration of the tested PROTACs in one of the following assay media; Dulbecco’s modified Eagle medium (DMEM) (50%)/dimethylsulfoxid (10%)/acetonitrile (40%) or DMEM (50%)/dimethylsulfoxid (10%)/methanol (40%) mixture at pH7.4. The formed solution mixtures were incubated for 0, 6, 12, and 24 h at 37 °C. Analyte decomposition was monitored by HPLC using XTerra RP18 column (3.5 mm, 3.9 mm × 100 mm) from the manufacturer Waters (Milford, MA, USA) and two LC-10AD pumps, a SPD-M10A VP PDA detector, and a SIL-HT autosampler, all from the manufacturer Shimadzu (Kyoto, Japan).

Sequence of HDAC1 (Q13547 whole entry): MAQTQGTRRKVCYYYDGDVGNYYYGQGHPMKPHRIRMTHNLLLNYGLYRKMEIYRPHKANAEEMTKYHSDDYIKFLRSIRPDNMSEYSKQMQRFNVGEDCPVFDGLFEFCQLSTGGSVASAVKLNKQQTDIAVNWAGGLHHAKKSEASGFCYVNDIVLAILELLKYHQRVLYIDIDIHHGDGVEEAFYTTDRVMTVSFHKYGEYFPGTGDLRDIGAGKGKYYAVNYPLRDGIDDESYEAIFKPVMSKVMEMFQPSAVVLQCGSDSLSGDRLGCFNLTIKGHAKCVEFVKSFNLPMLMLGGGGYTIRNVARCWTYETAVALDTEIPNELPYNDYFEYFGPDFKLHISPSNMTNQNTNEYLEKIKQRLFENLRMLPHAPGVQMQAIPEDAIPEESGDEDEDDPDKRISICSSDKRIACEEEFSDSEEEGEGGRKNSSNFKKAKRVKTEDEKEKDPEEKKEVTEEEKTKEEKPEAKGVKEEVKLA

Structure (SMILES) | Hyperacetylation of HDAC8 substrate SMC3 (acetylated SMC3) | HDAC1 degradation (HDAC1) | Non-enzymatic stability, compound remaining ([1]; 6 h) | Non-enzymatic stability, compound remaining ([1]; 24 h)
COC(=O)c1ccc(C)c(NCc2ccc(OCc3cn(CCCCCC(=O)Nc4cccc5c4C(=O)N(C4CCC(=O)NC4=O)C5=O)nn3)cc2)c1 (stereo not shown) [33a] | did not show hyperacetylation | – | – | –
COc1ccc(C(=O)NO)cc1NC(=O)c1ccc(NC(=O)CCCCCCCNc2cccc3c2C(=O)N(C2CCC(=O)NC2=O)C3=O)cc1 (stereo not shown) [CRBN_1b] | – | do not degrade | 100.0% | 91.6%
